Experimental data as given in US11285103B2, “Degradable hydrogel under physiological conditions” (priority 2015, dated 2022).
Numbered stars: 1 amine (or outer) side, 2 acyl side, 3 side chain; on linkers, the order of the positions; unused ones are H or OH. Square brackets hold non-standard residues; d marks the D form. Peptide text beside a SMILES is read from it. * marks the point of attachment. Fmoc = O=C(OCC1c2ccccc2-c2ccccc21)*; X1 = NCCc1cc(CN[*:1])ccc1C(=O)[*:2]

How the values were obtained:
[1] = Determination of half life in serum (cleavage of biodegradable linkers from model peptide); type: in vitro ADME; conditions: serum (100%); linker X on N terminus of model peptide X-G-dI-dV-dE-dQ-dA-dA; 100% serum, 37° C.; read-out: t1/2 (h), cleavage of biodegradable linker (converted)
Method: Model peptides X-G-dI-dV-dE-dQ-dA-dA (SEQ ID NO:4) capped with various biodegradable linkers were used in the assay. D amino acids were used to prevent other enzymatic cleavage of the model peptides. The peptides were dissolved in 100% serum and incubated at 37° C. Samples were collected for analysis at different time points (e.g., 8 h, 16 h, 24 h, 48 h, 72 h, 96 h, and 120 h).
The rate of cleavage was determined for the model peptides capped with respective biodegradable linkers. The concentrations of the model peptides capped with biodegradable linkers and the released model peptides were determined by their respective peak areas. The first order dissociation rate constant of a model peptide capped with a biodegradable linker was determined by plotting the logarithm of [starting model peptide capped with the biodegradable linker]/[remaining model peptide capped with the biodegradable linker] at various time intervals. The cleavage half life of a peptide capped with a biodegradable linker was calculated by using the equation and the slope derived from this plot.

[2] = Determination of half life in PBS (cleavage of biodegradable linkers from model peptides); type: physicochemical; conditions: linker X on N terminus of model peptide X-[…]; 1 mg/mL in PBS, 37° C.; read-out: t1/2 (h), cleavage of biodegradable linker (converted)
Method: Peptides GIVEQAA-NH2 (SEQ ID NO: 3) and […] (SEQ ID NO: 2), two mimics of the N-terminus section of insulin A chain, were used as model peptides to determine the half lives of various biogradable linkers linked to the N-terminus of the peptides through an amide bond. The model peptides were prepared with Fmoc chemistry, cleaved by TFA and purified by preparative RP-HPLC.
A model peptide capped with a biodegradable linker was dissolved at 1 mg/mL concentration in PBS and the solution was incubated at 37° C. in a water bath. Samples were collected for analysis at different time points (e.g., 8 h, 16 h, 24 h, 48 h, 72 h, 96 h, 120 h). […] The cleavage of a biodegradable linker was quenched by lowering pH to 2 by addition of 0.1% TFA solution. RP-HPLC was used to monitor the cleavage reactions and the cleavage rates were quantitatively studied by measuring the peak areas of model peptides when they are capped with biodegradable linkers and when linkers are released. […]
The rate of cleavage was determined for the model peptides capped with respective biodegradable linkers. The concentrations of the model peptides capped with biodegradable linkers and the released model peptides were determined by their respective peak areas. […] The cleavage half life of a peptide capped with a biodegradable linker was calculated by using the equation and the slope derived from this plot. […]

[3] = test system: diabetic rats; assay: Blood glucose change in streptozotocin-induced diabetic rats; type: in vivo, Wistar rats; conditions: 40 nmol/kg daily
Method: 9-week-old male Wistar rats, average weight 240±10 g, were housed in polypropylene cages and maintained at constant temperature and humidity on a 12 hour light/dark cycle, and allowed access to food and water ad libitum. When diabetes was induced, rats were fasted for 48 hours and intraperitoneally injected with streptozotocin (60 mg/kg, dissolved in […] sodium citrate buffer, pH 4.5), then food was provided. Blood glucose was checked after three days. Animals with blood glucose above 250 mg/dl was considered diabetic, and the rats with blood glucose higher than 450 mg/dl were used in the experiment. Recombinant insulin (24 nmol/kg) was injected daily to maintain blood glucose no higher than 550 mg/dl.
The insulin hydrogels were prepared according to the methods in Examples 8 and 20, but the hydrogel used in this example was loaded only with insulin. The actual insulin content was calculated with the method in Example 18.
Rats showing hyperglycemia (400-450 mg/dl) were divided into 3 groups, each containing 8 rats. Rats in the first group were intraperitoneally injected saline (100 μL). Rats in the second group were intraperitoneal injected insulin detemir (40 nmol/kg) daily. Rats in the third group were Injected hydrogel (75 nmol/kg, calculated according to the actual amount of human insulin in the hydrogel). […]

Q: With `CC[C@@H](C)[C@@H](NC(=O)CNC(=O)c1ccc(CNC(=O)OCC2c3ccccc3-c3ccccc32)cc1CCN)C(=O)N[C@@H](C(=O)N[C@H](CCC(=O)O)C(=O)N[C@H](CCC(N)=O)C(=O)N[C@H](C)C(=O)N[C@H](C)C(=O)O)C(C)C` (Fmoc-[X1]G[dI][dV][dE][dQ][dA][dA]-OH) as the compound, how does the half-life [1] read?
A: The half-life was 735 h.

Q: With `CC1NCc2cc(CN)ccc2C1=O` (stereo not drawn) as the compound, how does the half-life at 1 mg/mL [2] read?
A: Its half-life at 1 mg/mL is 264 h.

Q: For Insulin detemir, which blood glucose lowering [3] is on record?
A: The blood glucose lowering was “cannot effectively lower blood glucose”.
